Measurements taken from patent US20060167098A1, “Method for the treatment of diseases linked to an accumulation of triglycerides and cholesterol” (Institut National De La Sante ET De LA Recherche Medicale …, priority 2003, published 2006).

Assays:
Type in all cases: in vivo
[1] = Liver triglycerides in ob/ob mice, 6 weeks; details: 100 mg/kg/day 6 weeks, fasted 48 h
Method: Total lipids and triglycerides in the liver of animals were assessed according to a procedure partially reported by (Letteron P., Fromenty B., Terris B., Degott C., Pessayre D., 1996, J. Hepatol. 24 : 200-208). Briefly, after killing of the animals, livers were removed and homogenized in sterile water. Hepatic lipids were thus extracted by a mixture of chloroform and methanol (2/1; v/v). After removal of the aqueous phase, the organic phase (chloroform containing the lipids) was evaporated and the amount of lipids was determined by gravimetry. Lipids were subsequently resuspended in isopropanol (final concentration, ca. 10 mg/mL). After removal of the phopholipids by using aluminum hydroxide hydrate, triglycerides were determined colorimetrically by using periodate and the Nash's reagent (containing acetylacetone, ammonium acetate and isopropanol). The reaction generates diacetyldihydrolutidine which is assayed by spectrophotometry (λ=410 nm).
Liver triglycerides were assessed in ob/ob mice fed with a standard diet and receiving or not of 100 mg/kg/day of β-aminoisobutyric acid (BAIBA) in the drinking water during 6 weeks. Mice were 10 weeks old at the beginning of the experiment. These animals (7 controls and 10 treated with BAIBA) were different from those used for the determination of body fat by DEXA in the fed state (see above, paragraph I-d). At the end of the 6 weeks of treatment mice were submitted to a 48-hour period of fast At the end of this fasting period mice were killed for assessment of liver triglycerides. […] Indeed, liver triglycerides were reduced by 16 and 12%, respectively when the values were expressed as mg/whole liver or as mg/gram of lipids.

[2] = Plasma lipids in very young ob/ob mice; details: very young ob/ob mice (6 weeks at the beginning)
Method: Plasma lipids (triglycerides, total cholesterol, phospholipids) were measured on an automatic analyser (Hitachi 717®). The commercial kits used to assess triglycerides, total cholesterol and phospholipids on this analyser were all from bioMérieux (references 61238, 61219 and 61491, respectively). Plasma non esterified fatty acids (NEFA) were assessed by using a commercial kit (Wako, reference 994-75409). Hepatic and plasma lipids were performed at the end of six weeks of treatment in animals that have been fasted for 48 hours. Triglycerides and HDL-cholesterol were also assessed after 2 months (in the fed state) or after 4 months of treatment (after an overnight fast).
Accordingly, plasma triglycerides were 1.35 and 1.39 mmol/L in ob/ob mice in the present study, whereas much higher levels (1.96 mmol/L) were found in Swiss mice fed with the western diet (see above). Thus, it remains possible that the beneficial effects of BAIBA on plasma lipids are more pronounced when lipid levels are above a certain threshold. In keeping with this notion, BAIBA reduced by 22% plasma triglycerides in mice fed with the western diet (FIG. 6).

[3] = Liver histology in ob/ob mice, first series (48-hr fast); details: standard diet
Method: Plasma HDL-cholesterol and alanine aminotransferase (ALT) were measured on an automatic analyser (Olympus AU400®) with commercial kits (Olympus Diagnostica GmbH, references OSR6187 and OSR6107, respectively).
Finally, liver histology was performed according to regular procedure. Steatosis and fibrosis were assessed thanks to the Oil red O and Masson's trichrome stains, respectively, whereas necrosis and inflammation were determined thanks to the HPS (Hematoxylin-Phloxin-Saffron) stain, or the HE (Hematoxylin-Eosin) stain. In one experiment, perisinusoidal fibrosis was assessed with the Sirius Red stain.
Liver histology was first examined in ob/ob mice fed with standard diet receiving (11 mice) or not (10 mice) β-aminoisobutyric acid in the drinking water. In this experiment, mice were submitted to a 48-hr period of fast before killing and liver examination.

[4] = Gain of body fat mass by DEXA in Swiss mice, standard diet, not fasted; details: 100 mg/kg/day; for gain of body fat: standard diet, not fasted
From the text: Six to 8 weeks old male (Crl:CD-1(ICR)BR) Swiss mice, and six to ten weeks old male RjOrl Swiss mice (i.e. lean mice) weighing 28 and 32 grams were purchased from Dépré (Saint Doulchard, France). Ten to 12 weeks old ob/ob male (C57BL/6-ob) mice (i.e. obese mice), weighing 40 to 44 grams were purchased from Janvier (Le-Genest-St-Isle, France). In one experiment, younger ob/ob mice (5-6 weeks old) weighing 25-26 grams were also studied. In genetically obese ob/ob mice, a mutation on the gene of leptin prevents the normal production of this hormone, thus increasing appetite and decreasing energy consumption (Friedman J. M., Halaas J. L., 1998, Nature 395 : 763-770). […] The animals were acclimatized for one to two weeks before the start of experiments.
D,L-β-Aminoisobutyric acid (BAIBA) was purchased from Sigma-Aldrich. BAIBA has been administered in drinking water at the dose of 100 mg/kg/day or 500 mg/kg/day for 6 weeks, 2 months or 4 months according to the experiments.
The in vivo determination of body fat mass in anesthetized mice has been performed by “DEXA” (Dual Energy X-ray Absorptiometry) (Pietriobelli A., Formica C., Wang Z., Heymsfield S. B., 1996, Am. J. Physiol. 271 (Endocrinol. Metab. 34): E941-E951)). […] It is noteworthy that DEXA also gives for each investigated animal its lean mass that is the total amount of water and proteins (in grams) in the body (excluding the head). Therefore, for a given animal, DEXA allows the determination of the percentage of body fat which is its body fat mass divided by the sum of its body lean and fat masses (fat mass/(lean mass+fat mass)). The “DEXA” apparatus was a Piximus® from Lunar Corporation (Madison, Wis.). Mice were anesthetized thanks to a mixture of xylazine and ketamine.
Procedure 1: the animals were not fasted before DEXA investigations. The first DEXA measurement was performed one day before the beginning of the investigation (T0). Afterwards, DEXA measurements have been respectively performed two weeks (T2) and six weeks (T6) after the beginning of the treatment. With this procedure, it has been possible to determine in each group of animals the evolution of several parameters (e.g. fat mass, body weight) between respectively T0 and T2, and T2 and T6. Comparisons of these evolutions were thus performed for the T0-T2, T2-T6 and T0-T6 periods.
In a second series of investigations, we sought to determine as to whether of 100 mg/kg/day of β-aminoisobutyric acid (BAIBA) decreases body fat in Swiss mice not submitted to fast before DEXA measurements. Mice were 6 to 8 weeks old at the beginning of the experiment. In this experiment, DEXA was performed one day before the beginning of the treatment (T0) and then two and six weeks after the initiation of the experience (T2 and T6, respectively). This allowed us to determine for each animal the variation of body fat mass for the different periods of the treatment (T0-T2, T2-T6 and T0-T6). […] This effect of BAIBA is submitted in FIG. 2.

With `CC(CN)C(=O)O` (racemic) [BAIBA, D,L-β-Aminoisobutyric acid] the “reduction of liver triglycerides (values as mg/gram of lipids)” value [1] was 12%, the “reduction of liver triglycerides (values as mg/whole liver)” value [1] was 16% and the liver triglycerides ([1]; p<0.01) was 625±14 mg/g of lipids. It also gave a plasma phospholipids [2] of 4.35 ± 0.11 mmol/L, a plasma total cholesterol [2] of 4.96 ± 0.15 mmol/L and a plasma triglycerides [2] of 1.07 ± 0.03 mmol/L. The “reduction of plasma phospholipids” value [2] was 4%, the “reduction of total cholesterol” value [2] was 5% and the animals with inflammation [3] was 63%. The animals with necrosis [3] was 63%, the “animals with perisinusoidal fibrosis” value [3] was 45% and the plasma alanine aminotransferase [3] was “not decreased”. For the same molecule, the “mice with between 90 and 100% of fat-laden hepatocytes” value ([3]; 11 treated mice) was 27%, the “gain of body fat” value ([4]; T0-T2 period) was 0.56±0.12 grams and the “gain of body weight” value ([4]; T0-T6) was 9.02±0.42 grams. For the same molecule, the “reduction of the gain of fat mass” value ([4]; T0-T6, standard diet, vs control) was 55%, the “reduction of the gain of body weight” value ([4]; T0-T6, vs control, p<0.01) was 12% and the “gain of body fat” value ([4]; T0-T6 period) was 0.84±0.18 grams. For the same molecule, the “gain of body fat” value ([4]; T2-T6 period) was 0.28±0.12 grams.
